What was measured:
db/db mice [1] = experiment: Intraperitoneal glucose tolerance test (IPGTT) in db/db mice; format: in vivo, mouse; details: 2.5 mgkg^−1 day^−1 for 6 weeks, day 42, db/db mice
Method: FIGS. 1A-F show the anti-diabetic effects of cytopiloyne in db/db mice during long-term treatment. (A) Chemical structure of cytopiloyne (2-β-D-glucopyranosyloxy-1-hydroxytrideca-5,7,9,11-tetrayne). (B) Four groups of 6-to-8-week-old diabetic db/db mice were tube-fed with vehicle, cytopiloyne (CP, 0.5 and 2.5 mgkg^−1 day^−1) or glimepiride (GLM, 2.5 mgkg^−1 day^−1) from 0 to 42 days post-treatment. Blood glucose (BG) levels in these mice were measured. (C) Blood insulin levels from the mice of FIG. 1B. (D) IPGTT was performed in the db/db mice of FIG. 1B on day 0, 28 and 42, and blood glucose levels were monitored for 3.5 h. (E) The percentage of glycosylated HbAlc of whole blood from the mice of FIG. 1B on day 0 and 42. (F) Pancreata of 8- and 16-week-old db/db males, which had received the same treatment as FIG. 1B for 2 (images a-h) and 10 (images i-p) weeks, were stained with hematoxylin and eosin (H&E, images a, c, e, g, i, k, m and o) or hematoxylin and anti-insulin (H&I, images b, d, f, h, j, l, n and p). […] Results from 3 independent experiments are expressed as mean±SEM, and P<0.05 was considered to be statistically significant (*). […]
Male db/db mice were administered either vehicle, cytopiloyne at 0.5 and 2.5 mgkg^−1 day^−1 or glimepiride at 2.5 mgkg^−1 day^−1 for the indicated time. […] The levels of blood sugar were monitored from −0.5 to 3 h after glucose administration.

STZ-treated C57BL mice = experiment: Insulin sensitizer test: oral dose before insulin injection in STZ-treated C57BL mice; format: in vivo, mouse; details: cytopiloyne 0.5 and 2.5, glimepiride 2.5, metformin 60 mgkg^−1 oral; insulin 2.5 IUkg^−1
Method: FIGS. 3A-C show cytopiloyne-mediated insulin release depends on pancreatic islet cells. (A) Rat pancreatic islet cells were incubated with glucose-free KRB buffer containing vehicle or cytopiloyne at 1.5, 3, 7, 14, 28 and 42 μM (FIG. 3A-i). Similarly, rat pancreatic islet cells were incubated with KRB buffer containing vehicle, glimepiride (GLM, 10 μM) or cytopiloyne at 1.5, 3, 7, 14, 28 and 42 μM in the presence of 3.3 mM glucose (LG, FIG. 3A-ii) or 16.7 mM glucose (HG, FIG. 3A-iii). The insulin levels were determined using an insulin ELISA kit. The data presented as mean±SEM of 3 independent experiments. (B) Fed C57BL mice, which had already received an injection of STZ, were administered with an oral dose of vehicle, cytopiloyne (CP, 0.1, 0.5 and 2.5 mgkg^−1), and an intraperitoneal injection of insulin (Ins, 2.5 IUkg^−1). Blood sugar levels in the STZ-treated mice were determined using a glucometer. (C) C57BL mice, which had already received STZ, were orally administered with a single dose of vehicle, cytopiloyne (CP, 0.5 and 2.5 mgkg^−1), glimepiride (GLM, 2.5 mgkg^−1), or metformin (60 mgkg^−1), followed by an intraperitoneal injection with insulin (Ins). Blood sugar levels in the STZ-treated mice were determined using a glucometer. All the results from 3 independent experiments are expressed as mean±SEM, and P<0.05 was considered to be statistically significant (*). The number of mice (n) is indicated in parentheses.
To deplete pancreatic β-cells in mice, 6-week-old C57BL females (NLAC, Taipei, Taiwan) were intraperitoneally injected with STZ at 200 mgkg^−1. STZ-treated females with postprandial blood sugar over 500 mgdl^−1 were grouped. […] Blood glucose levels were monitored for 4 h. To distinguish sensitizer activity from releaser activity of cytopiloyne, STZ-treated C57BL mice were tube-fed with vehicle, glimepiride (2.5 mgkg^−1), metformin (60 mgkg^−1) or cytopiloyne (0.5 and 2.5 mgkg^−1) 1 h before insulin injection (2.5 IUkg^−1). Blood glucose levels in the mice were monitored from 0 to 4 h after insulin injection.

PKCα = PKCα translocation and phosphorylation (Western blot) in RIN-m5F cells; format: cell-based, rat; details: PMA 1 μM, glucose 16.7 mM
Method: FIGS. 5A-D show the effects of cytopiloyne on calcium mobilization, DAG generation and PKCa activation. (A) After Fura 2-AM loading, RIN-m5F cells were stimulated with 16.7 mM glucose (HG) and cytopiloyne at 7, 14 and 28 μM. Level of intracellular calcium, as shown by the 340/380 nm ratio, was detected using a fluorescence spectrophotometer. (B) RIN-m5F cells were pulsed with ^3H-myristic acid (5 Cim1^−1) for 16 hours. After washing, the cells were stimulated with glucose, cytopiloyne, PMA and glimepiride. Total lipids were separated on a silica thin layer plate. DAG and cholesterol were visualized with iodine vapor and identified by their standards. (C) RIN-m5F cells were incubated with vehicle (Mock), cytopiloyne (CP, 3, 7 and 14 μM), PMA (1 μM) and 16.7 mM (HG). Membrane or cytosolic proteins were subjected to Western blot with anti-PKCα and anti-Actin antibodies. (D) RIN-m5F cells were incubated with vehicle (Mock), cytopiloyne (CP 7 μM) and PMA (1 μM). After lysis, total lystaes were subjected to Western blot with anti-PKCα, anti-phospho-PKCα and anti-Actin antibodies.

db/db mice [2] = experiment: Prophylaxis of diabetes in diabetes-free db/db mice; format: in vivo, mouse; details: 0.5 mgkg^−1 daily for 4 weeks, diabetes-free db/db mice aged 4 weeks
Method: FIGS. 2A-B show the prophylactic effect of cytopiloyne in db/db mice. […] Postprandial blood glucose levels in these mice were measured. (B) Blood insulin levels from the mice of […] were measured. Results from 3 independent experiments are expressed as mean±SEM, and P<0.05 was considered to be statistically significant (*).
After 0.5 h, the levels of postprandial blood sugar and insulin from the mice were monitored for additional 4 h. For continued administration, diabetic db/db males were grouped and tube-fed with vehicle, cytopiloyne (0.5 or 2.5 mgkg^−1 day^−1) or glimepiride (2.5 mg kg^−1 day^−1) for the indicated time, while levels of blood sugar, insulin, and glycosylated HbA1c, and glucose tolerance in these mice were determined. To evaluate the prophylaxis of diabetes, diabetes-free db/db mice at 4 weeks of age were tube-fed with vehicle or cytopiloyne (CP, 0.5 mgkg^−1), once a day, for 4 weeks. Unless indicated otherwise, the mice were fasted for 16 h, then Postprandial blood glucose and insulin in these mice were measured.

Compound: CC#CC#CC#CC#CCCC(CO)O[C@@H]1O[C@H](CO)[C@@H](O)[C@H](O)[C@H]1O (stereo partly drawn) [cytopiloyne, 2-β-D-glucopyranosyloxy-1-hydroxytrideca-5,7,9,11-tetrayne]
- glucose tolerance (IPGTT) (db/db mice [1]): improved glucose tolerance in db/db mice to a greater extent than glimepiride
- blood sugar lowering when dosed 60 min before insulin injection (STZ-treated C57BL mice): little, if any, lowering effect on blood sugar
- phosphorylation of PKCα (PKCα; cytopiloyne 7 μM): increased phosphorylation of PKCα
- translocation of PKCα from cytoplasm to membrane (PKCα; cytopiloyne 3, 7 and 14 μM): It was the case
- blood sugar control in prophylactic treatment (db/db mice [2]): control blood sugar in these mice much better than the control
- prevention of T2D (db/db mice [2]): failed to prevent the disease

Compound: CCC1=C(C)CN(C(=O)NCCc2ccc(S(=O)(=O)NC(=O)N[C@H]3CC[C@H](C)CC3)cc2)C1=O [glimepiride, reference compound]
- blood sugar lowering when dosed 60 min before insulin injection (STZ-treated C57BL mice): little, if any, lowering effect on blood sugar
